Results from PMC7179198, “Chiral Pyridine-3,5-bis- (L-phenylalaninyl-L-leucinyl) Schiff Base Peptides as Potential Anticancer Agents: Design, Synthesis, and Molecular Docking Studies Targeting Lactate Dehydrogenase-A” (Molecules, 2020).

Tests used:
p53 ubiquitination [1] = experiment: In vivo p53 ubiquitination inhibition; conditions: for IC50: read-out: in vivo IC50, suppression of p53 ubiquitination
Description: (§1) Several cancer prevention drugs depend mainly on the ubiquitination activities against p53 as a suppressor protein. When E3 ubiquitin protein ligase HDM2 binds to p53, the resulting mechanism is the inhibition of its ability as a transcription activator. Accordingly, the regulative mechanism is acting negatively. Therefore, blocking the p53 binding site on HDM2 provides for a better possible antitumorigenic molecule. Currently, murine double minute 2 (MDM2) is considered as the regulator of choice when it comes to investigatingp53 inhibition.
(§2) Different prepared derivatives 4–6 were evaluated for their inhibitory potential against p53 ubiquitination according to the previously reported procedure.

MCF-7 xenografts = experiment: In vivo human breast cancer xenograft; design: species or system nude mice; conditions: MCF-7 xenograft, eight days of treatment
Description: In this section, we developed a breast cancer animal xenograft model for the evaluation of thein vivo anticancer potential of our newly prepared compounds. […] After wards, the noticeable effects were more or less constant up to 14 days of treatment. […] Our results are in good agreement with those previously published on the in vivo anticancer potential of Schiff bases owing to apoptosis induction.
The breast cancer xenograft model protocol was approved by the Institutional Animal Use and Care Committee of the University of Alabama at Birmingham (50-01-05-08B). Female athymic pathogen-free nude mice (nu/nu, 4–6 weeks) were used. Firstly, MCF-7 xenografts were initiated by implanting pellets slowly releasing estrogen for two months (1.7mg 17β-estradiol/pellet) subcutaneously in the female nude mice. After 24 h, confluent MCF-7 cells were harvested, washed two times with serum-free medium, re-suspended, and injected subcutaneously (s.c.) (5 × 10^6 cells, total volume 0.2 mL) into the left inguinal area of the mice. Caliper measurement was used to measure tumor growth in two perpendicular diameters of the implant after 48 h, and its volume was determined. Mice grafted with MCF-7 were divided into different groups (7–10 mice/group). Untreated mice received the solvent only. Treated groups received different prepared derivatives as previously described.

p53 ubiquitination [2] = experiment: In vitro p53 ubiquitination inhibition; assay type: biochemical; conditions: for IC50: read-out: in vitro IC50, suppression of p53 ubiquitination
Description: as §1, §2

[3] = test system: non-tumorigenic MCF-10A cells; experiment: Cytotoxicity against normal non-tumorigenic MCF-10A cells (MTT); assay type: cell-based; conditions: MCF-10A vs MCF-7
Description: (§3) Following the synthesis of the new bis-dipeptide derivatives, we evaluated the anticancer potentials of these derivatives in vitro against breast cancer cells (MCF-7) as well as normal non tumorigenic MCF-10A cells. The obtained results were expressed as IC50 values in µM and were also compared for both cell lines with positive reference controls; that is cisplatin and milaplatin. Generally, it can be seen that our newly synthesized bis-dipeptides have potential anticancer activities against MCF-7 cells.
The fact that normal cells are usually less affected by possible anticancer candidates may be attributed to the fact that, upon cancer initiation and development, cancer cells overcome normal growth regulation pathways present in normal cells, and thusthey tend to be affected by other different regulatory growth pathways, which are not evident in the case of normal cells.
(§4) The results were expressed as IC50. Experiments were repeated at least in triplicate, to obtain good reproducibility between replicate wells with standard errors below 10%. Furthermore, the cytotoxic effects of the prepared derivatives were evaluated against normal nonmalignant cells, non-tumorigenic MCF-10A, in order to find out if the synthesized derivatives have toxicity against normal cells. Additionally, the results were compared with reference compounds (cisplatin and milaplatin) as positive controls.

[4] = test system: breast cancer cells (MCF-7); experiment: In vitro cytotoxic activity against MCF-7 cancer cells (MTT); assay type: cell-based, human; conditions: for IC50: MCF-7, MTT
Description: as §3
Human breast cancer (MCF-7) cells, obtained from Sigma-Aldrich Chemie GmbH, Taufkirchen, Germany, were propagated in RPMI-1640 supplemented with 10% heat inactivated FBS, 2 mM L-glutamine, and 1% standard antibiotic solution. Cells were incubated in a 5% CO2humidified incubator at 37 °C and passaged bi-weekly. The in vitro anti-proliferative activity of the newly synthesized derivatives was assayed using the standard MTT technique.
as §4

[5] = biological target: T1, recombinant human LDHA protein (Homo sapiens, UniProt P00338); experiment: LDHA inhibition assay (colorimetric NADH kit); assay type: biochemical; conditions: recombinant human LDHA
T1 construct: purchased Abcam ab93699
Procedure: The newly synthesized compounds 4–6 were evaluated for their ability to inhibit LDHA in comparison with galloflavin as a known isoform nonselective LDHA inhibitor [44, 45]. The choice of galloflavin as a reference was based on the fact that it is potent anticancer agent and commercially available.
Lactate dehydrogenase assay kit (Abcam, ab102526) and recombinant human LDHA protein (Abcam, ab93699) were used to assess the inhibitory effect of the tested compounds. First, we generated an NADH standard curve for colorimetric detection by measuring the OD (450 nm) at different molar amounts of NADH. The linear regression equation of the curve was derivatized in Graphpad Prism. Tested compounds were dissolved in DMSO and their inhibitory activity was assessed at 140 and 300 μM strength. Galloflavin (Sigma, SML0776) at the same molar concentration was used as a known LDH inhibitor. The master reaction mix composed of LDH assay buffer and 10 ng human LDHA […] per reaction was prepared. Tested compounds were added and the final reaction volume was adjusted to 50 μL. Absorbance at 450 nm was taken after 2–3 min (T-initial) and continued every minute for 118 min (T-final). The change in measurement over time (delta A450) was calculated as T-final minus T-initial. The amount of NADH generated by the assay between T-initial and T-final was deduced by comparing the A450 of each sample to the standard NADH standard curve. LDHA activity was calculated in milliunits per mL as the amount of NADH generated by the assay / (reaction time in minutes (118) x reaction volume in mL ([…]).

`CC(=NNC(=O)C(CC(C)C)NC(=O)C(Cc1ccccc1)NC(=O)c1cncc(C(=O)NC(Cc2ccccc2)C(=O)NC(CC(C)C)C(=O)NN=C(C)c2ccccn2)c1)c1ccccn1` (centres unmarked) (hydrate or solvate) [4a, N^3,N^5-Bis{1-[(4-methyl-1-oxo-1-(2-(1-(pyridin-2-yl)ethylidene)hydrazinyl)pentan-2-yl)amino]-1-oxo-3-phenylpropan-2-yl}pyridine-3,5-dicarboxamide] showed a melting point of 216 to 218 °C.

`CC(=NNC(=O)C(CC(C)C)NC(=O)C(Cc1ccccc1)NC(=O)c1cncc(C(=O)NC(Cc2ccccc2)C(=O)NC(CC(C)C)C(=O)NN=C(C)c2cccnc2)c1)c1cccnc1` (centres unmarked) (hydrate or solvate) [4b, N^3,N^5-Bis{1-[(4-methyl-1-oxo-1-(2-(1-(pyridin-3-yl)ethylidene)hydrazinyl)pentan-2-yl)-amino]-1-oxo-3-phenylpropan-2-yl}pyridine-3,5-dicarboxamide] gave a melting point of 208 to 210 °C.

For `CC(=NNC(=O)C(CC(C)C)NC(=O)C(Cc1ccccc1)NC(=O)c1cncc(C(=O)NC(Cc2ccccc2)C(=O)NC(CC(C)C)C(=O)NN=C(C)c2ccncc2)c1)c1ccncc1` (centres unmarked) (hydrate or solvate) [4c, N^3,N^5-Bis{1-[(4-methyl-1-oxo-1-(2-(1-(pyridin-4-yl)ethylidene)hydrazinyl)pentan-2-yl)-amino]-1-oxo-3-phenylpropan-2-yl}pyridine-3,5-dicarboxamide], the melting point was 196 to 198 °C.

Compound `CC(=NNC(=O)C(CC(C)C)NC(=O)C(Cc1ccccc1)NC(=O)c1cncc(C(=O)NC(Cc2ccccc2)C(=O)NC(CC(C)C)C(=O)NN=C(C)c2ccc([N+](=O)[O-])cc2)c1)c1ccc([N+](=O)[O-])cc1` (centres unmarked) (hydrate or solvate) [5e, N^3,N^5-Bis{1-[(4-methyl-1-(2-(1-(4-nitrophenyl)ethylidene)hydrazinyl)-1-oxopentan-2-yl)-amino]-1-oxo-3-phenylpropan-2-yl}pyridine-3,5-dicarboxamide] has a melting point of 256 to 258 °C.

`CC(C)CC(NC(=O)C(Cc1ccccc1)NC(=O)c1cncc(C(=O)NC(Cc2ccccc2)C(=O)NC(CC(C)C)C(=O)NN=C2CCCC2)c1)C(=O)NN=C1CCCC1` (centres unmarked) [3a, N^3,N^5-Bis{1-[(1-(2-cyclopentylidenehydrazinyl)-4-methyl-1-oxopentan-2-yl]amino)-1-oxo-3-phenylpropan-2-yl}pyridine-3,5-dicarboxamide] gave a melting point of 232 to 234 °C.

`CC(C)CC(NC(=O)C(Cc1ccccc1)NC(=O)c1cncc(C(=O)NC(Cc2ccccc2)C(=O)NC(CC(C)C)C(=O)NN=C2CCCCC2)c1)C(=O)NN=C1CCCCC1` (centres unmarked) [3b, N^3,N^5-Bis{1-[(1-(2-cyclohexylidenehydrazinyl)-4-methyl-1-oxopentan-2-yl)amino]-1-oxo-3-phenylpropan-2-yl}pyridine-3,5-dicarboxamide] gave a melting point of 198 to 200 °C.

For `CC(C)CC(NC(=O)C(Cc1ccccc1)NC(=O)c1cncc(C(=O)NC(Cc2ccccc2)C(=O)NC(CC(C)C)C(=O)NN=C2CCCCCC2)c1)C(=O)NN=C1CCCCCC1` (centres unmarked) [3c, N^3,N^5-Bis{1-[(1-(2-cycloheptylidenehydrazinyl)-4-methyl-1-oxopentan-2-yl)amino]-1-oxo-3-phenylpropan-2-yl}pyridine-3,5-dicarboxamide], the melting point was 221 to 223 °C.

`CC(C)CC(NC(=O)C(Cc1ccccc1)NC(=O)c1cncc(C(=O)NC(Cc2ccccc2)C(=O)NC(CC(C)C)C(=O)NN=C2CCCCCCC2)c1)C(=O)NN=C1CCCCCCC1` (centres unmarked) [3d, N^3,N^5-Bis{1-[(1-(2-cyclooctylidenehydrazinyl)-4-methyl-1-oxopentan-2-yl)amino]-1-oxo-3-phenylpropan-2-yl}pyridine-3,5-dicarboxamide] gave a melting point of 242 to 244 °C.

For `CC(=NNC(=O)C(CC(C)C)NC(=O)C(Cc1ccccc1)NC(=O)c1cncc(C(=O)NC(Cc2ccccc2)C(=O)NC(CC(C)C)C(=O)NN=C(C)c2ccccn2)c1)c1ccccn1` (centres unmarked) [4a, N^3,N^5-Bis{1-[(4-methyl-1-oxo-1-(2-(1-(pyridin-2-yl)ethylidene)hydrazinyl)pentan-2-yl)amino]-1-oxo-3-phenylpropan-2-yl}pyridine-3,5-dicarboxamide], the “fold higher inhibitory effect than positive control (diphenyl imidazole), in vivo p53 ubiquitination” value (p53 ubiquitination [1]; in vivo, vs diphenyl imidazole) was roughly 15.7 fold, the IC50 (p53 ubiquitination [1]) was 0.12 ± 0.0011 µM and the “decrease in tumor growth” value (MCF-7 xenografts) was 81.3%. For the same compound, the IC50 (p53 ubiquitination [2]) was 21.34 ± 0.13 µM and the “fold higher inhibitory effect than positive control (diphenyl imidazole), in vitro p53 ubiquitination” value (p53 ubiquitination [2]; vs diphenyl imidazole) was “about 12.2 fold”.

In the case of `CC(=NNC(=O)C(CC(C)C)NC(=O)C(Cc1ccccc1)NC(=O)c1cncc(C(=O)NC(Cc2ccccc2)C(=O)NC(CC(C)C)C(=O)NN=C(C)c2cccnc2)c1)c1cccnc1` (centres unmarked) [4b, N^3,N^5-Bis{1-[(4-methyl-1-oxo-1-(2-(1-(pyridin-3-yl)ethylidene)hydrazinyl)pentan-2-yl)-amino]-1-oxo-3-phenylpropan-2-yl}pyridine-3,5-dicarboxamide], the “fold higher IC50 against MCF-10A than MCF-7” value [3] is reported as “about 142.7 fold”, the IC50 ([4]; Homo sapiens, MCF7) is reported as 8.12 ± 0.14 µM and the “more active than cisplatin against MCF-7” value ([4]; MCF-7, vs cisplatin) is reported as “about 39.1%”. The “more active than milaplatin against MCF-7” value ([4]; MCF-7, vs milaplatin) was roughly 55.9%.

With `CC(C)CC(NC(=O)C(Cc1ccccc1)NC(=O)c1cncc(C(=O)NC(Cc2ccccc2)C(=O)NC(CC(C)C)C(=O)NN=Cc2ccco2)c1)C(=O)NN=Cc1ccco1` (centres unmarked) [6a, N^3,N^5-bis{1-[(1-(2-(furan-2-ylmethylene)hydrazinyl)-4-methyl-1-oxopentan-2-yl)amino]-1-oxo-3-phenylpropan-2-yl}pyridine-3,5-dicarboxamide] the IC50 (p53 ubiquitination [1]) was 0.31 ± 0.001 µM and the melting point was 205 to 207 °C.

For `CC(C)CC(NC(=O)C(Cc1ccccc1)NC(=O)c1cncc(C(=O)NC(Cc2ccccc2)C(=O)NC(CC(C)C)C(=O)NN=Cc2cccs2)c1)C(=O)NN=Cc1cccs1` (centres unmarked) [6b, N^3,N^5-bis{1-[(4-methyl-1-oxo-1-(2-(thiophen-2-ylmethylene)hydrazinyl)pentan-2-yl)amino]-1-oxo-3-phenylpropan-2-yl}pyridine-3,5-dicarboxamide], the melting point was 218 to 220 °C.

Work on `N.N.[Cl][Pt][Cl]` [cisplatin, reference compound] yielded an IC50 [4] of 13.34 ± 0.11 µM.

`O=c1oc2c(cc1O)oc(=O)c1cc(O)c(O)c(O)c12` [galloflavin, reference compound] gave an IC50 [5] of 161.1 ± 0.32 µM.

In the case of “N^3,N^5-Bis{1-[(1-(2-(1-(4-methoxyphenyl)ethylidene)hydrazinyl)-4-methyl-1-oxopentan-2-yl)-amino]-1-oxo-3-phenylpropan-2-yl}pyridine-3,5-dicarboxamide [5a]”, the “fold higher IC50 against MCF-10A than MCF-7” value [3] is reported as roughly 145.9 fold, the IC50 [4] is reported as 17.6 ± 0.27 µM and the IC50 (p53 ubiquitination [2]) is reported as 44.33 ± 0.34 µM.

Compound milaplatin [reference compound] has an IC50 [4] of 18.43 ± 0.13 µM.
